Assay results taken from ChEMBL document CHEMBL1955831, “Inhibitors of human histone deacetylase with potent activity against the African trypanosome Trypanosoma brucei” (Bioorg Med Chem Lett, 2012).
Activity calls are given as the source filed them. The calls are words filed in the database; no cut-off is given here.

Legend:
[1] = biological target: Histone deacetylase 3 (Homo sapiens) (UniProt O15379); assay: Inhibition of human recombinant HDAC3 expressed using baculovirus expression system using Flour- De-Lys as substrate after 3 hrs by fluorescence analysis
[2] = biological target: Histone deacetylase 9 (Homo sapiens) (UniProt Q9UKV0); assay: Inhibition of human recombinant HDAC9 expressed using baculovirus expression system using Flour- De-Lys as substrate after 3 hrs by fluorescence analysis
[3] = biological target: Histone deacetylase 2 (Homo sapiens) (UniProt Q92769); assay: Inhibition of human recombinant HDAC2 expressed using baculovirus expression system using Flour- De-Lys as substrate after 3 hrs by fluorescence analysis
[4] = biological target: Histone deacetylase 4 (Homo sapiens) (UniProt P56524); assay: Inhibition of human recombinant HDAC4 expressed using baculovirus expression system using Flour- De-Lys as substrate after 3 hrs by fluorescence analysis
[5] = tested on: Trypanosoma brucei; assay: Antitrypanosomal activity against bloodstream Trypanosoma brucei 427 assessed as cell death at 2 ug/ml within 4 hrs by Giemsa staining-based DMRB microscopic analysis
[6] = biological target: T1, Histone deacetylase 8 (Homo sapiens) (UniProt Q9BY41); assay: Inhibition of human recombinant HDAC8 expressed using baculovirus expression system using Flour- De-Lys as substrate after 3 hrs by fluorescence analysis
T1 sequence (whole entry): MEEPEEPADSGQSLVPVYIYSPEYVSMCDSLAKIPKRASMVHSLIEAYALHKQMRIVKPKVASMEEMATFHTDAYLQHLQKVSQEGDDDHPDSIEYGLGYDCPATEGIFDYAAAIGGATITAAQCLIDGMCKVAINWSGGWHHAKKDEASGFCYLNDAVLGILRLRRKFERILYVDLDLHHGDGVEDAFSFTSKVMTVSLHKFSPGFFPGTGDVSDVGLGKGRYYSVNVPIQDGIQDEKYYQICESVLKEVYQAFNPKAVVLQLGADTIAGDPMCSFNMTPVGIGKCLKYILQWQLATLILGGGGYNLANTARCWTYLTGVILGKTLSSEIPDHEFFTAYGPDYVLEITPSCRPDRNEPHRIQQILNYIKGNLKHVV

Chain of Histone deacetylase 9 (Homo sapiens) (Q9UKV0 whole entry): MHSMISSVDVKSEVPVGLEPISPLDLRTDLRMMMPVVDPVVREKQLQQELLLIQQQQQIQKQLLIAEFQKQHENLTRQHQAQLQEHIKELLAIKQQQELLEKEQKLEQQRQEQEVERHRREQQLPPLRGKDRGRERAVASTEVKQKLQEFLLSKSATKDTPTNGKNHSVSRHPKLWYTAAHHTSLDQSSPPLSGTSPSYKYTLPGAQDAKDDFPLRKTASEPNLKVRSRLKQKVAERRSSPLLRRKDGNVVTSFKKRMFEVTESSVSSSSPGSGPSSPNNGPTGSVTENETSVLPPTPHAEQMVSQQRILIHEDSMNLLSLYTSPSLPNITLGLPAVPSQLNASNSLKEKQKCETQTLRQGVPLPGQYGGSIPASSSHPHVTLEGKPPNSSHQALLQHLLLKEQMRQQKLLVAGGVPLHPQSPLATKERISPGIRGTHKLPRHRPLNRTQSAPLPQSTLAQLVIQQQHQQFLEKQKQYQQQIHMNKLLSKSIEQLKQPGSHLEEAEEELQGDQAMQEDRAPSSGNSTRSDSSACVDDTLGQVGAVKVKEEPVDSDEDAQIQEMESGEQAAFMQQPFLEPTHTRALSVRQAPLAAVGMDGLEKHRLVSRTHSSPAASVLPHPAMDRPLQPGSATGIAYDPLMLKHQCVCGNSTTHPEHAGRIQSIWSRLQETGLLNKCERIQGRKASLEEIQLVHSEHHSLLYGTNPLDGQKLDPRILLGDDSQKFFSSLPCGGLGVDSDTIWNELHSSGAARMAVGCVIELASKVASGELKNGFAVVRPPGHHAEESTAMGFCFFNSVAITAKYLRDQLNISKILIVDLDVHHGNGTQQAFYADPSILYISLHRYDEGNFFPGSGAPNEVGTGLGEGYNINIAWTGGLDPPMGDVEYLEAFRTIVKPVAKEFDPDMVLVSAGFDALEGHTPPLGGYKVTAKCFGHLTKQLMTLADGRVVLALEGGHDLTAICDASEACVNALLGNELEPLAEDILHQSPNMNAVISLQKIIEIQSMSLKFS
Chain of Histone deacetylase 3 (Homo sapiens) (O15379 whole entry): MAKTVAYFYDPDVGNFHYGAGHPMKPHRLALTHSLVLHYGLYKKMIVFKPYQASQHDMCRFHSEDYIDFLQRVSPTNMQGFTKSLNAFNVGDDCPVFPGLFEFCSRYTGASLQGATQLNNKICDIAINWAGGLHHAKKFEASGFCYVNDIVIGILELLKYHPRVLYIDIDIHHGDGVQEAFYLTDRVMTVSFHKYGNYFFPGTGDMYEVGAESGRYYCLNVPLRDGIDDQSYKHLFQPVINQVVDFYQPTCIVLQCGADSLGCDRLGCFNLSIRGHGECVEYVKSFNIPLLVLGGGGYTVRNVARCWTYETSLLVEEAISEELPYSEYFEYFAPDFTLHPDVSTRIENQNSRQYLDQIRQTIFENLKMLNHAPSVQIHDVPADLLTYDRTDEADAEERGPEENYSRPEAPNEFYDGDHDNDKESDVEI
Chain of Histone deacetylase 4 (Homo sapiens) (P56524 whole entry): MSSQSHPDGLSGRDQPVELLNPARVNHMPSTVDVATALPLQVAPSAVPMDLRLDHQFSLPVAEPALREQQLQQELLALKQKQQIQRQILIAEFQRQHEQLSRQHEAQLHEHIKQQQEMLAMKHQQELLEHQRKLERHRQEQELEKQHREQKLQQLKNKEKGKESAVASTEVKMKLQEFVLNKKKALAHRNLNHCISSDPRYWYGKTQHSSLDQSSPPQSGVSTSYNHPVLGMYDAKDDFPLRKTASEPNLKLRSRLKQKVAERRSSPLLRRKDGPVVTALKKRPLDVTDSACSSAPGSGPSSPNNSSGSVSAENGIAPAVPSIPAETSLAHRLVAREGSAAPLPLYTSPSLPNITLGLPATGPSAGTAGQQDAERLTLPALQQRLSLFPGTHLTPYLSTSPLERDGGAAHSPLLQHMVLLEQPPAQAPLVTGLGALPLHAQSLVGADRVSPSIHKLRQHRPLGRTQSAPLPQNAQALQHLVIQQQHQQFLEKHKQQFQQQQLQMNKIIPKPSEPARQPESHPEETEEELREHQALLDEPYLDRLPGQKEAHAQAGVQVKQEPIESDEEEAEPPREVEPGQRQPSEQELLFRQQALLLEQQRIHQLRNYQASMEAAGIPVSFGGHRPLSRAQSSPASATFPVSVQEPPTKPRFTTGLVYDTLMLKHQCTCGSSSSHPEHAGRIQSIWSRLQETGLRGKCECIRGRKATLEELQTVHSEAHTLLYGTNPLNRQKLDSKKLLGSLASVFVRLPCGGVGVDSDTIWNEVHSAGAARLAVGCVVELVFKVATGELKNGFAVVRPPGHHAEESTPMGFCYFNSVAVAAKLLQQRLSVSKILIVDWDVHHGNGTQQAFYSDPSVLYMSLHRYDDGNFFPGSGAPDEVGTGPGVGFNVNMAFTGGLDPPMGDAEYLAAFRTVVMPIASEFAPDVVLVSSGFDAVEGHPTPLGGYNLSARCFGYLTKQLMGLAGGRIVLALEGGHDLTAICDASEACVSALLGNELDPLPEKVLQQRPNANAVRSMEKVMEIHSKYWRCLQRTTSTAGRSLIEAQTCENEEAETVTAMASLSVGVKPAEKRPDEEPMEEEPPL
Chain of Histone deacetylase 2 (Homo sapiens) (Q92769 whole entry): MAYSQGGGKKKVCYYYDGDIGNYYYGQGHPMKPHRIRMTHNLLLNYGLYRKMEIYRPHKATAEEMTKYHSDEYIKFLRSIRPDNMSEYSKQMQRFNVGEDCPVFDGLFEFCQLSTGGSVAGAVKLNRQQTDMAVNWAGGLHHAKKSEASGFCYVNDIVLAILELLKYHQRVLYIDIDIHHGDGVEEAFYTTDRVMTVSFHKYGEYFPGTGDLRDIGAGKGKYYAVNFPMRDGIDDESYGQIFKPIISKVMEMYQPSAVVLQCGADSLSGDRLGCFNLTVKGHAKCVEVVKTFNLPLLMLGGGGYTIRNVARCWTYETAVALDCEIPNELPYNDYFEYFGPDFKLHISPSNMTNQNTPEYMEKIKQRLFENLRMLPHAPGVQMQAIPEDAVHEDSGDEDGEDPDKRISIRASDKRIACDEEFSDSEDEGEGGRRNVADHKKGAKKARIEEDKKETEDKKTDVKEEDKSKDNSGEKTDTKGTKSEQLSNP

O=C(/C=C/c1nc2ccccc2o1)NO
ED50 [1]: 97 nM

COc1ccccc1N1CCN(S(=O)(=O)c2cccc(/C=C/C(=O)NO)c2)CC1
ED50 [2]: 145 nM

COc1ccc(NS(=O)(=O)c2cccc(/C=C/C(=O)NO)c2)cc1
ED50 [3]: 105 nM

O=C(/C=C/c1cccc(S(=O)(=O)Nc2cccc(F)c2)c1)NO
ED50 [4]: 65 nM

O=C(/C=C/c1cccc(S(=O)(=O)N2CCN(c3ncccn3)CC2)c1)NO
Activity [5]: Active

COc1ccc(N2CCN(S(=O)(=O)c3cccc(/C=C/C(=O)NO)c3)CC2)cc1
ED50 [2]: 1180 nM

O=C(/C=C/c1cccc(S(=O)(=O)N2CCN(c3ccccn3)CC2)c1)NO
ED50 [6]: 581 nM
